Converted amounts (≈) assume the structure as drawn. “And” between values parts separate entries of the source, which are not always exact repeats. Equal entries are not always repeated. Where two headings read alike, the source gives them in different places.
Legend:
Experiment in all cases: microbe, parasite or virus in culture
Assay type in all cases: cell-based
[1] = tested on: inherently resistant microorganisms
[2] = tested on: microorganisms with acquired resistance; conditions: for MIC comb. (antibiotic agent): with MBI 29
[3] = tested on: bacterial isolates
[4] = Acinetobacter baumannii, read-out: Tobramycin MIC Alone, A. baumannii ABI001
[5] = Acinetobacter baumannii, read-out: Tobramycin MIC Alone, A. baumannii ABI002
[6] = Pseudomonas aeruginosa, read-out: Tobramycin MIC Alone, P. aeruginosa PA008
[7] = Pseudomonas aeruginosa, read-out: Tobramycin MIC Alone, P. aeruginosa PA022
[8] = Pseudomonas aeruginosa, read-out: Tobramycin MIC Alone, P. aeruginosa PA025
[9] = Pseudomonas aeruginosa, read-out: Tobramycin MIC Alone, P. aeruginosa PA026
[10] = Pseudomonas aeruginosa, read-out: Tobramycin MIC Alone, P. aeruginosa PA030
[11] = Pseudomonas aeruginosa, read-out: Tobramycin MIC Alone, P. aeruginosa PA032
[12] = Staphylococcus epidermidis, read-out: Tobramycin MIC Alone, S. epidermidis SE068
[13] = Staphylococcus epidermidis, read-out: Tobramycin MIC Alone, S. epidermidis SE072
[14] = Staphylococcus epidermidis, read-out: Tobramycin MIC Alone, S. epidermidis SE073
[15] = Staphylococcus epidermidis, read-out: Tobramycin MIC Alone, S. epidermidis SE080
[16] = Stenotrophomonas maltophilia, read-out: Tobramycin MIC Alone, S. maltophilia SMA029
[17] = Stenotrophomonas maltophilia, read-out: Tobramycin MIC Alone, S. maltophilia SMA030
[18] = Stenotrophomonas maltophilia, read-out: Tobramycin MIC Alone, S. maltophilia SMA031
[19] = Stenotrophomonas maltophilia, read-out: Tobramycin MIC Alone, S. maltophilia SMA032

## NC[C@H]1O[C@H](O[C@H]2[C@H](O)[C@@H](O[C@H]3O[C@H](CO)[C@@H](O)[C@H](N)[C@H]3O)[C@H](N)C[C@@H]2N)[C@H](N)C[C@@H]1O [Tobramycin]
[1]; Staphylococcus aureus, read-out: Tobramycin MIC + Peptide, S. aureus, peptide MBI 11A1CN
  MIC: 0.125 µg/mL
[1]; Staphylococcus aureus, read-out: Tobramycin MIC + Peptide, S. aureus, peptide MBI 11D18CN
  MIC: 4 µg/mL
[1]; Staphylococcus aureus, read-out: Tobramycin MIC + Peptide, S. aureus, peptide MBI 11F3CN
  MIC: 2 µg/mL
[1]; Staphylococcus aureus, read-out: Tobramycin MIC + Peptide, S. aureus, peptide MBI 11G13CN
  MIC: 0.125 µg/mL
[1]; Staphylococcus aureus, read-out: Tobramycin MIC + Peptide, S. aureus, peptide MBI 21A1
  MIC: 0.125 µg/mL
[1]; Staphylococcus aureus, read-out: Tobramycin MIC + Peptide, S. aureus, peptide MBI 22A1
  MIC: 4 µg/mL
[1]; Staphylococcus aureus, read-out: Tobramycin MIC Alone, S. aureus
  MIC: > 128 µg/mL
[1]; Staphylococcus haemolyticus, read-out: Tobramycin MIC + Peptide, S. haemolyticus, peptide MBI 11A1CN
  MIC: 4 µg/mL
[1]; Staphylococcus haemolyticus, read-out: Tobramycin MIC Alone, S. haemolyticus
  MIC: 8 µg/mL (≈ 17.1 µM)
[2]; A. calcoaceticus
  MIC comb. (antibiotic agent): 1 µg/mL (≈ 2.14 µM)
[2]; [4]
  MIC: 16 µg/mL (≈ 34.2 µM)
[2]; [5]
  MIC: 8 µg/mL (≈ 17.1 µM)
[2]; Acinetobacter calcoaceticus, read-out: MIC alone (antibiotic agent), A. calcoaceticus
  MIC: 8 µg/mL (≈ 17.1 µM)
[2]; Escherichia coli, read-out: Tobramycin MIC Alone, E. coli EC0006
  MIC: 8 µg/mL (≈ 17.1 µM)
[2]; P. aeruginosa PA032
  Tobramycin MIC Alone: 8 µg/mL
[2]; P. aeruginosa
  MIC comb. (antibiotic agent): 1 µg/mL (≈ 2.14 µM)
[2]; Pseudomonas aeruginosa, read-out: MIC alone (antibiotic agent), P. aeruginosa
  MIC: 64 µg/mL (≈ 137 µM)
[2]; [6]
  MIC: 32 µg/mL (≈ 68.4 µM)
[2]; [7]
  MIC: 8 µg/mL (≈ 17.1 µM)
[2]; [8]
  MIC: 32 µg/mL (≈ 68.4 µM)
[2]; [9]
  MIC: 8 µg/mL (≈ 17.1 µM)
[2]; [10]
  MIC: 16 µg/mL (≈ 34.2 µM)
[2]; Pseudomonas aeruginosa, read-out: Tobramycin MIC Alone, P. aeruginosa PA031
  MIC: 16 µg/mL (≈ 34.2 µM)
[2]; [11]
  MIC: 16 µg/mL (≈ 34.2 µM)
[2]; S. maltophilia SMA031
  Tobramycin MIC Alone: 128 µg/mL and >128 µg/mL
[2]; [12]
  MIC: > 128 µg/mL
[2]; Staphylococcus epidermidis, read-out: Tobramycin MIC Alone, S. epidermidis SE071
  MIC: > 128 µg/mL
[2]; [13]
  MIC: > 128 µg/mL
[2]; [14]
  MIC: > 128 µg/mL
[2]; [15]
  MIC: 16 µg/mL (≈ 34.2 µM)
[2]; [16]
  MIC: 128 µg/mL (≈ 274 µM)
[2]; [17]
  MIC: 128 µg/mL (≈ 274 µM)
[2]; [18]
  MIC: 64 µg/mL (≈ 137 µM)
[2]; [19]
  MIC: 128 µg/mL (≈ 274 µM)
[3]; A. baumannii ABI002
  Tobramycin MIC Alone: 4 µg/mL
[3]; [4]
  MIC: 16 µg/mL (≈ 34.2 µM)
[3]; [5]
  MIC: 8 µg/mL (≈ 17.1 µM)
[3]; Burkholderia cepacia, read-out: Tobramycin MIC Alone, B. cepacia BC001
  MIC: 128 µg/mL (≈ 274 µM)
[3]; Burkholderia cepacia, read-out: Tobramycin MIC Alone, B. cepacia BC002
  MIC: > 128 µg/mL
[3]; Escherichia coli, read-out: Tobramycin MIC Alone, E. coli ECO004
  MIC: 2 µg/mL (≈ 4.28 µM)
[3]; Escherichia coli, read-out: Tobramycin MIC Alone, E. coli ECO006
  MIC: 8 µg/mL (≈ 17.1 µM)
[3]; Klebsiella pneumoniae, read-out: Tobramycin MIC Alone, K. pneumoniae KP008
  MIC: 0.5 µg/mL (≈ 1.07 µM)
[3]; [6]
  MIC: 32 µg/mL (≈ 68.4 µM)
[3]; [7]
  MIC: 8 µg/mL (≈ 17.1 µM)
[3]; [8]
  MIC: 32 µg/mL (≈ 68.4 µM)
[3]; [9]
  MIC: 8 µg/mL (≈ 17.1 µM)
[3]; Pseudomonas aeruginosa, read-out: Tobramycin MIC Alone, P. aeruginosa PA028
  MIC: 32 µg/mL (≈ 68.4 µM)
[3]; Pseudomonas aeruginosa, read-out: Tobramycin MIC Alone, P. aeruginosa PA029
  MIC: 32 µg/mL (≈ 68.4 µM)
[3]; [10]
  MIC: 16 µg/mL (≈ 34.2 µM)
[3]; [11]
  MIC: 16 µg/mL (≈ 34.2 µM)
[3]; S. haemolyticus SHA005
  Tobramycin MIC Alone: 4 µg/mL
[3]; S. maltophilia SMA031
  Tobramycin MIC Alone: >128 µg/mL
[3]; Staphylococcus aureus, MRSA, read-out: Tobramycin MIC Alone, S. aureus SA014 (also SA014 MRSA)
  MIC: > 128 µg/mL
[3]; Staphylococcus aureus, MRSA, read-out: Tobramycin MIC Alone, S. aureus SA014 MRSA
  MIC: > 128 µg/mL
[3]; Staphylococcus aureus, MRSA, read-out: Tobramycin MIC Alone, S. aureus SA018 MRSA
  MIC: 64 µg/mL (≈ 137 µM)
[3]; Staphylococcus aureus, MRSA, read-out: Tobramycin MIC Alone, S. aureus SA025 (also SA025 MRSA)
  MIC: > 128 µg/mL
[3]; Staphylococcus epidermidis, read-out: Tobramycin MIC Alone, S. epidermidis SE067
  MIC: > 128 µg/mL
[3]; [12]
  MIC: > 128 µg/mL
[3]; [13]
  MIC: > 128 µg/mL
[3]; [14]
  MIC: > 128 µg/mL
[3]; [15]
  MIC: 32 µg/mL (≈ 68.4 µM)
[3]; Staphylococcus haemolyticus, read-out: Tobramycin MIC Alone, S. haemolyticus SHA001
  MIC: 4 µg/mL (≈ 8.56 µM)
[3]; Staphylococcus haemolyticus, read-out: Tobramycin MIC Alone, S. haemolyticus SHA005
  MIC: 8 µg/mL (≈ 17.1 µM)
[3]; Stenotrophomonas maltophilia, read-out: Tobramycin MIC Alone, S. maltophilia (strain code stands in r800, not shown)
  MIC: 128 µg/mL (≈ 274 µM)
[3]; Stenotrophomonas maltophilia, read-out: Tobramycin MIC Alone, S. maltophilia SMA027
  MIC: 32 µg/mL (≈ 68.4 µM)
[3]; [16]
  MIC: 128 µg/mL (≈ 274 µM)
[3]; [17]
  MIC: 128 µg/mL (≈ 274 µM)
[3]; [18]
  MIC: 128 µg/mL (≈ 274 µM)
[3]; [19]
  MIC: 128 µg/mL (≈ 274 µM)
[3]; Stenotrophomonas maltophilia, read-out: Tobramycin MIC Alone, S. maltophilia SMA035
  MIC: 32 µg/mL (≈ 68.4 µM)

— US20020035061A1, “COMPOSITIONS AND METHODS FOR TREATING INFECTIONS USING CATIONIC PEPTIDES ALONE OR IN COMBINATION WITH ANTIBIOTICS” (priority 1996, published 2002)
